Experiment [1] has as its system Beet Armyworm (BAW) (Spodoptera exigua). The experiment is described as follows: Bioassay on beet armyworm (BAW), 128-well diet tray assay. In kind it is in vivo. The settings on record: Spodoptera exigua; Beet armyworm, 50 μg/cm^2; read-out: % Mortality BAW 50 μg/cm^2. As for the experimental part: (§1) Bioassays on Beet Armyworm (“BAW”) and Corn Earworm (“CEW”)
(§2) Certain molecules disclosed in this document were tested against BAW and CEW using procedures described in the following examples. In the reporting of the results, the “BAW & CEW Rating Table” was used (See Table Section).
Bioassays on BAW (Spodoptera exigua)
Bioassays on BAW were conducted using a 128-well diet tray assay. One to five second instar BAW larvae were placed in each well (3 mL) of the diet tray that had been previously filled with 1 mL of artificial diet to which 50 μg/cm^2 of the test compound (dissolved in 50 μL of 90:10 acetone-water mixture) had been applied (to each of eight wells) and then allowed to dry. Trays were covered with a clear self-adhesive cover and held at 25° C., 14:10 light-dark for five to seven days. Percent mortality was recorded for the larvae in each well; activity in the eight wells was then averaged. The results are indicated in the table entitled “Table 5: Biological Results” (See Table Section).

In experiment [2] the test system is Corn Earworm (CEW) (Helicoverpa zea). The experiment is described as follows: Bioassay on corn earworm (CEW), 128-well diet tray assay. In kind it is in vivo. Particulars: Helicoverpa zea; Corn earworm, 50 μg/cm^2; read-out: % Mortality CEW 50 μg/cm^2. As for the experimental part:
as §1, §2
Bioassays on CEW (Helicoverpa zea)
Bioassays on CEW were conducted using a 128-well diet tray assay. One to five second instar CEW larvae were placed in each well (3 mL) of the diet tray that had been previously filled with 1 mL of artificial diet to which 50 μg/cm^2 of the test compound (dissolved in 50 μL of 90:10 acetone-water mixture) had been applied (to each of eight wells) and then allowed to dry. Trays were covered with a clear self-adhesive cover and held at 25° C., 14:10 light-dark for five to seven days. Percent mortality was recorded for the larvae in each well; activity in the eight wells was then averaged. The results are indicated in the table entitled “Table 5: Biological Results” (See Table Section).

The values below come from patent US9018388B2, “Pesticidal compositions and processes related thereto” (Dow AgroSciences LLC, priority 2012, dated 2015).

Take `Cc1cccc(C)c1/N=C(/N/N=C/c1ccc(-c2ncn(-c3ccc(OC(F)(F)F)cc3)n2)cc1)SCC(=O)NCCCN(C)C(=O)OC(C)(C)C` [Compound 61C]: the pest or weed control at 50 µg/cm2, 50 µg/cm2 in experiment [1] and in experiment [2] was 50 to 100% each time.

For `Cc1cccc(C)c1/N=C(/N/N=C/c1ccc(-c2ncn(-c3ccc(OC(F)(F)F)cc3)n2)cc1)SCC(=O)NCC(N)C(=O)O` (stereo not drawn) [Compound 63C], the pest or weed control at 50 µg/cm2, 50 µg/cm2 in experiment [1] and in experiment [2] was 50 to 100% each time.

For the compound `COc1cc(C)c(/N=C(/N/N=C/c2ccc(-c3ncn(-c4ccc(OC(F)(F)F)cc4)n3)cc2)SCC(=O)NCCCN)c(C)c1` [Compound 64C], the pest or weed control at 50 µg/cm2, 50 µg/cm2 in experiment [1] and in experiment [2] was 50 to 100% each time.

Take `Cc1cccc(C)c1/N=C(/N/N=C/c1ccc(-c2ncn(-c3ccc(OC(F)(F)F)cc3)n2)cc1)SCC(=O)N1CCNCC1` [Compound 67C]: the pest or weed control at 50 µg/cm2, 50 µg/cm2 in experiment [1] and in experiment [2] was 50 to 100% each time.

In the case of `O=C1CS/C(=N\N=C\c2ccc(-c3ncn(-c4ccc(OC(F)(F)F)cc4)n3)cc2)N1c1c(Cl)cccc1Cl` [Compound 70C], the pest or weed control at 50 µg/cm2, 50 µg/cm2 in experiment [1] and in experiment [2] was 50 to 100% each time.

As to `Cc1cccc(C)c1N1C(=O)CS/C1=N\N=C\c1ccc(-c2ncn(-c3ccc(OC(F)(F)F)cc3)n2)cc1` [Compound 71C], the pest or weed control at 50 µg/cm2, 50 µg/cm2 in experiment [1] and in experiment [2] was 50 to 100% throughout.

Consider `CCN(CC)c1ccc(-c2cs/c(=N\N=C\c3ccc(-c4ncn(-c5ccc(OC(F)(F)F)cc5)n4)cc3)n2-c2c(C)cccc2C)cc1` [Compound 74C], for which the pest or weed control at 50 µg/cm2, 50 µg/cm2 in experiment [1] and in experiment [2] was 50 to 100% throughout.

`COc1cc(C)c(-n2c(C(=O)O)cs/c2=N\N=C\c2ccc(-c3ncn(-c4ccc(OC(F)(F)F)cc4)n3)cc2)c(C)c1` [Compound 80C]: the pest or weed control at 50 µg/cm2, 50 µg/cm2 in experiment [1] and in experiment [2] was 50 to 100% throughout.

Take `Cc1cccc(C)c1/N=C1\SCC(=O)N1/N=C/c1ccc(-c2ncn(-c3ccc(OC(F)(F)F)cc3)n2)cc1` [Compound 81C]: the pest or weed control at 50 µg/cm2, 50 µg/cm2 in experiment [1] and in experiment [2] was 50 to 100% each time.

Consider `O=C1CS/C(=N\N=C\c2ccc(-c3ncn(-c4ccc(OC(F)(F)F)cc4)n3)cc2)N1c1c(F)cccc1F` [Compound 89C], for which the pest or weed control at 50 µg/cm2, 50 µg/cm2 in experiment [1] and in experiment [2] was 50 to 100% throughout.

For the compound `Cc1cccc(Cl)c1N1C(=O)CS/C1=N\N=C\c1ccc(-c2ncn(-c3ccc(OC(F)(F)F)cc3)n2)cc1` [Compound 93C], the pest or weed control at 50 µg/cm2, 50 µg/cm2 in experiment [1] and in experiment [2] was 50 to 100% throughout.

As for `CCc1ccccc1N1C(=O)CS/C1=N\N=C\c1ccc(-c2ncn(-c3ccc(OC(F)(F)F)cc3)n2)cc1` [Compound 94C], the pest or weed control at 50 µg/cm2, 50 µg/cm2 in experiment [1] and in experiment [2] was 50 to 100% each time.

For the compound `CN(C)c1cccc(N2C(=O)CS/C2=N\N=C\c2ccc(-c3ncn(-c4ccc(OC(F)(F)F)cc4)n3)cc2)c1` [Compound 97C], the pest or weed control at 50 µg/cm2, 50 µg/cm2 in experiment [1] and in experiment [2] was 50 to 100% each time.

With `O=C1CS/C(=N\N=C\c2ccc(-c3ncn(-c4ccc(OC(F)(F)F)cc4)n3)cc2)N1c1c(Br)cccc1Br` [Compound 99C], the pest or weed control at 50 µg/cm2, 50 µg/cm2 in experiment [1] and in experiment [2] was 50 to 100% in each case.

As to `Cc1cccc(C)c1N1C(=O)CS/C1=N\N=C\c1ccc(-c2ncn(-c3ccc(OC(F)(F)C(F)(F)F)cc3)n2)cc1` [Compound 100C], the pest or weed control at 50 µg/cm2, 50 µg/cm2 in experiment [1] and in experiment [2] was 50 to 100% throughout.

Turning to `COc1cc(C)c(N2C(=O)CS/C2=N\N=C\c2ccc(-c3ncn(-c4ccc(OC(F)(F)F)cc4)n3)cc2)c(C)n1` [Compound 101C], the pest or weed control at 50 µg/cm2, 50 µg/cm2 in experiment [1] and in experiment [2] was 50 to 100% throughout.

In the case of `O=C1CS/C(=N\N=C\c2ccc(-c3cn(-c4ccc(OC(F)(F)F)cc4)cn3)cc2)N1c1c(Cl)cccc1Cl` [Compound 102C], the pest or weed control at 50 µg/cm2, 50 µg/cm2 in experiment [1] and in experiment [2] was 50 to 100% each time.

For `Cc1cccc(C)c1N1C(=O)CS/C1=N\N=C\c1ccc(-c2ccn(-c3ccc(OC(F)(F)F)cc3)n2)cc1` [Compound 103C], the pest or weed control at 50 µg/cm2, 50 µg/cm2 in experiment [1] and in experiment [2] was 50 to 100% in each case.

As to `Cc1cccc(C)c1N1C(=O)CS/C1=N\N=C\c1ccc(-c2cnn(-c3ccc(OC(F)(F)F)cc3)c2)cc1` [Compound 104C], the pest or weed control at 50 µg/cm2, 50 µg/cm2 in experiment [1] and in experiment [2] was 50 to 100% each time.

`Cc1cc(Cl)cc(C)c1N1C(=O)CS/C1=N\N=C\c1ccc(-c2ncn(-c3ccc(OC(F)(F)F)cc3)n2)cc1` [Compound 105C]: the pest or weed control at 50 µg/cm2, 50 µg/cm2 in experiment [1] and in experiment [2] was 50 to 100% each time.

On to `O=C1CS/C(=N\N=C\c2ccc(-c3ncn(-c4ccc(OC(F)(F)F)cc4)n3)cc2)N1c1ccccc1Cl` [Compound 106C], for which the pest or weed control at 50 µg/cm2, 50 µg/cm2 in experiment [1] and in experiment [2] was 50 to 100% in each case.

As for `CCC(C)c1ccccc1N1C(=O)CS/C1=N\N=C\c1ccc(-c2ncn(-c3ccc(OC(F)(F)F)cc3)n2)cc1` (stereo not drawn) [Compound 108C], the pest or weed control at 50 µg/cm2, 50 µg/cm2 in experiment [1] and in experiment [2] was 50 to 100% each time.

For `COC(=O)C1CC(c2ccc(/C=N/N=C3\SCC(=O)N3c3c(Cl)cccc3Cl)cc2)=NN1c1ccc(OC(F)(F)F)cc1` (stereo not drawn) [Compound 109C], the pest or weed control at 50 µg/cm2, 50 µg/cm2 in experiment [1] and in experiment [2] was 50 to 100% each time.

For the compound `COC(=O)C1CC(c2ccc(/C=N/N=C3\SCC(=O)N3c3c(C)cccc3C)cc2)=NN1c1ccc(OC(F)(F)F)cc1` (stereo not drawn) [Compound 110C], the pest or weed control at 50 µg/cm2, 50 µg/cm2 in experiment [1] and in experiment [2] was 50 to 100% each time.

Consider `Cc1ccccc1N1C(=O)CS/C1=N\N=C\c1ccc(-c2ncn(-c3ccc(OC(F)(F)F)cc3)n2)cc1` [Compound 113C], for which the pest or weed control at 50 µg/cm2, 50 µg/cm2 in experiment [1] and in experiment [2] was 50 to 100% throughout.

Consider `COc1ccc(N2C(=O)CS/C2=N\N=C\c2ccc(-c3ncn(-c4ccc(OC(F)(F)F)cc4)n3)cc2)c(C)c1` [Compound 114C], for which the pest or weed control at 50 µg/cm2, 50 µg/cm2 in experiment [1] and in experiment [2] was 50 to 100% each time.

Regarding `CCOc1ccccc1N1C(=O)CS/C1=N\N=C\c1ccc(-c2ncn(-c3ccc(OC(F)(F)F)cc3)n2)cc1` [Compound 116C], the pest or weed control at 50 µg/cm2, 50 µg/cm2 in experiment [1] and in experiment [2] was 50 to 100% in each case.

Consider `Cc1cccnc1N1C(=O)CS/C1=N\N=C\c1ccc(-c2ncn(-c3ccc(OC(F)(F)F)cc3)n2)cc1` [Compound 117C], for which the pest or weed control at 50 µg/cm2, 50 µg/cm2 in experiment [1] and in experiment [2] was 50 to 100% in each case.

Consider `Cc1cnccc1N1C(=O)CS/C1=N\N=C\c1ccc(-c2ncn(-c3ccc(OC(F)(F)F)cc3)n2)cc1` [Compound 118C], for which the pest or weed control at 50 µg/cm2, 50 µg/cm2 in experiment [1] and in experiment [2] was 50 to 100% throughout.

On to `CC(C)Cc1ccccc1N1C(=O)CS/C1=N\N=C\c1ccc(-c2ncn(-c3ccc(OC(F)(F)F)cc3)n2)cc1` [Compound 119C], for which the pest or weed control at 50 µg/cm2, 50 µg/cm2 in experiment [1] and in experiment [2] was 50 to 100% each time.

`CC(C)c1ccccc1N1C(=O)CS/C1=N\N=C\c1ccc(-c2ncn(-c3ccc(C(F)(F)F)cc3)n2)cc1` [Compound 120C]: the pest or weed control at 50 µg/cm2, 50 µg/cm2 in experiment [1] and in experiment [2] was 50 to 100% each time.

Regarding `C/C(=N\N=C1/SCC(=O)N1c1ccccc1C(C)C)c1ccc(-c2ncn(-c3ccc(OC(F)(F)F)cc3)n2)cc1` [Compound 122C], the pest or weed control at 50 µg/cm2, 50 µg/cm2 in experiment [1] and in experiment [2] was 50 to 100% each time.

`CCc1cccnc1N1C(=O)CS/C1=N\N=C\c1ccc(-c2ncn(-c3ccc(OC(F)(F)F)cc3)n2)cc1` [Compound 123C]: the pest or weed control at 50 µg/cm2, 50 µg/cm2 in experiment [1] and in experiment [2] was 50 to 100% each time.

On to `O=C1CS/C(=N\N=C\c2ccc(-c3ncn(-c4ccc(OC(F)(F)F)cc4)n3)cc2)N1c1ccccc1OC(F)(F)F` [Compound 124C], for which the pest or weed control at 50 µg/cm2, 50 µg/cm2 in experiment [1] and in experiment [2] was 50 to 100% in each case.

Take `CC(C)(C)c1ccccc1N1C(=O)CS/C1=N\N=C\c1ccc(-c2ncn(-c3ccc(OC(F)(F)F)cc3)n2)cc1` [Compound 125C]: the pest or weed control at 50 µg/cm2, 50 µg/cm2 in experiment [1] and in experiment [2] was 50 to 100% throughout.

Take `O=C1CS/C(=N\N=C\c2ccc(-c3ncn(-c4ccc(OC(F)(F)F)cc4)n3)cc2)N1c1ccccc1OC(F)F` [Compound 126C]: the pest or weed control at 50 µg/cm2, 50 µg/cm2 in experiment [1] and in experiment [2] was 50 to 100% each time.
